Laboratory results taken from patent publication US4057530A, “2-Phenyl-indole derivatives and process for preparing the same” (priority 1974, dated 1977).
Where “and” joins values, the source holds several entries; their conditions need not be identical. Identical values can stand only once. Entries after “also recorded” stand apart in the source; their conditions may differ.

Experiments:
[1] = Acute toxicity by oral route in mice (LD50); format: in vivo; conditions: mouse, in vivo, gummy suspension
Description: (§1) The study of the acute toxicity of the stabilizers listed below was carried out by determining the dose of substance which provoked the death of 50% of the treated animals (LD50). A gummy suspension of the substance under study was administered by oral route to groups of at least ten mice and the following results were observed: […]

mice = assay: Acute toxicity by oral route in mice (LD50); format: in vivo; conditions: LD50 study
Description: as §1

[2] = Static thermostability of stabilized resin, GARDNER Scale Comparator, Compound B; conditions: 210° C; for Thickness of sheet: after 21 min; for State of sheet: after 24 min
Description: (§2) The stabilizing power of the substances of the invention was studied from two points of view:
(§3) These studies were performed with six different formulae of vinyl resins (hereinafter referred to as Compounds).
(§4) The different compounds were mixed and calendered in a mixer of which the cylinders were heated to 160° C. The rigid sheets so obtained were then heated in an oven to a temperature between 180° C and 215° C, until incipient carbonization.
(§5) A stove with rotating drums, ventilated and equipped with a thermostat was used for this operation. In the trials described hereunder, the behaviour of a sheet containing the stabilizer to be tested was compared to that of a sheet of the same formula but containing 2-phenyl-indole as stabilizer.
(§6) 1. The colouration of the sheets, of which samples were removed from the stove at fixed intervals was compared to a standard scale of colouration, known as the GARDNER Scale, and expressed in terms of the reference figures of the GARDNER Scale.
(§7) Comparisons were made with a GARDNER Scale Comparator which contains 18 filters of coloured glass and which offers the possibility of observing by transparency and in a limited field of view both the sheet and the reference filters.
Compound B was used and the sheets obtained presented the following characteristics: […]

[3] = Static thermostability of stabilized resin, GARDNER Scale Comparator, Compound A; conditions: 185° C
Description: as §2, §3, §4, §5, §6, §7

[4] = Static thermostability of stabilized resin, simplified method (GARDNER sub-scale), Compound A; conditions: 210° C
Description: as §2, §3, §4, §5
(§8) 2. It is also possible to use a simplified method which is more rapid and with which valid results are also obtained: a reference scale is drawn up with sheets of thermally treated polyvinyl chloride, of which the colourations have been definitely determined in GARDNER degrees as above. A GARDNER sub-scale is thus obtained in polyvinyl chloride sheets which can be directly compared to the sheets to be tested without using the comparator.
Finally, trials were carried out with Stabilizers 15, 16 and 17 and with 2-phenyl-indole. Compound A was used and the temperature was 210° C.

[5] = Static thermostability of stabilized resin, simplified method (GARDNER sub-scale), Compound D; conditions: 185° C
Description: as §2, §3, §4, §5, §8

[6] = Static thermostability of stabilized resin, simplified method (GARDNER sub-scale), Compound E; conditions: 185° C
Description: as §2, §3, §4, §5, §8

[7] = Static thermostability of stabilized resin, simplified method (GARDNER sub-scale), Compound C; conditions: 210° C
Description: as §2, §3, §4, §5, §8

[8] = Sticking of the stabilized material; conditions: cylinders at 210° C, 3 min mixing / 3 min rest
Description: Compounds Nos. 609 and 675 were placed in a mixer of the type previously used for studying static thermostability with cylinders at a fixed temperature of 210° C.
They were submitted to alternate periods of 3 minutes of mixing and 3 minutes of rest.

[9] = Sublimation of the stabilizers; format: physicochemical; conditions: 120° C, 15 Torr, 150 min; for Percentage of sublimated substance: cold wall 13° C
Description: A sample of the substance to be tested was introduced into a test tube and heated under reduced pressure. The fraction of sublimated substance was recovered on a mobile cold wall.
After a certain period of time, the sublimated substance was weighed and the result expressed as a percentage of the weight of the starting-material.
The results obtained can only be of relative value, enabling a comparison to be made between two products tested under the same conditions.
Operating conditions (chosen at random).
Temperature of heating 120° C
Temperature of the cold wall
Duration of heating 150 minutes

[10] = format: physicochemical
Description: The thermostability of Stabilizer 8 and that of 2-phenyl-indole were studied by differential thermoanalysis and by thermogravimetric analysis. […] Diagrams were made out for 2-phenyl-indole (i) and Compound 8 (ii) and enabled the following conclusions to be drawn: […]

[11] = Thermostability of the stabilizers: thermogravimetric analysis; format: physicochemical
Description: The thermostability of Stabilizer 8 and that of 2-phenyl-indole were studied by differential thermoanalysis and by thermogravimetric analysis.
This analysis necessitated two series of trials carried out under air and under inert gas (Argon) in order to eliminate any possible effect of oxygen. The results obtained were identical.
The temperature increase rate was 80° C/hour. Thermograms were drawn up under air for both 2-phenyl-indole (i) and for Stabilizer 8 (ii) and enabled the following conclusion to be drawn: […]

[12] = Dynamic thermostability of stabilized resin on a plastograph, Compound C; conditions: Compounds C and F, 190° C
Description: The dynamic thermostability of resins containing respectively 2-(4'-dodecyloxy-phenyl)-indole and 2-phenyl-indole as stabilizers was compared by using the Compounds numbered hereunder:
No. 609: Compound C with 2-phenyl-indole as Stabilizer
No. 675: Compound C with Stabilizer 8
The tests were performed on a plastograph, working at a temperature of 190° C, turning at a speed of 60 r.p.m. and containing a charge of 30 g of gelled material.
Two curves were drawn namely:
a decomposition curve giving the value of the resistant torque (m kg) in relation to time.
From this curve, two important results were obtained: the minimal resistant torque and the time of decomposition.
a curve giving the self-heating time in relation to temperature.
The self-heating time is defined by the moment when the temperature of the sheet exceeds the temperature of the plastograph (190° C).

## c1ccc(-c2cc3ccccc3[nH]2)cc1 [2-phenyl-indole]
[1]
  LD50: > 3000 mg/kg
mice
  Toxic symptoms: none
[2]; 0 min
  Colouration of sheet (GARDNER Scale): 1 GARDNER degrees
[2]; 3 min
  Colouration of sheet (GARDNER Scale): 1 GARDNER degrees
[2]; 6 min
  Colouration of sheet (GARDNER Scale): 2 GARDNER degrees
[2]; 9 min
  Colouration of sheet (GARDNER Scale): 3 GARDNER degrees
[2]; 12 min
  Colouration of sheet (GARDNER Scale): 4 GARDNER degrees
[2]; 15 min
  Colouration of sheet (GARDNER Scale): 6 GARDNER degrees
[2]; 18 min
  Colouration of sheet (GARDNER Scale): 8 GARDNER degrees
[2]; 21 min
  Colouration of sheet (GARDNER Scale): > 18 GARDNER degrees
[2]
  Thickness of sheet: 0.9 mm
  State of sheet: burnt
[3]; 0 min
  Colouration of sheet (GARDNER Scale): 1 GARDNER degrees
[3]; 6 min
  Colouration of sheet (GARDNER Scale): 1 GARDNER degrees
[3]; 12 min
  Colouration of sheet (GARDNER Scale): 3 GARDNER degrees
[3]; 18 min
  Colouration of sheet (GARDNER Scale): 5 GARDNER degrees
[3]; 24 min
  Colouration of sheet (GARDNER Scale): 11 GARDNER degrees
[3]; 30 min
  Colouration of sheet (GARDNER Scale): 12 GARDNER degrees
[3]; 36 min
  Colouration of sheet (GARDNER Scale): 14 GARDNER degrees
[3]; 42 min
  Colouration of sheet (GARDNER Scale): 14 GARDNER degrees
[3]; 48 min
  Colouration of sheet (GARDNER Scale): 14 GARDNER degrees
[3]; 54 min
  Colouration of sheet (GARDNER Scale): burnt
[4]; 0 min
  Colouration of sheet (GARDNER sub-scale): 1 GARDNER degrees
[4]; 3 min
  Colouration of sheet (GARDNER sub-scale): 2 GARDNER degrees and 1 GARDNER degrees
[4]; 3 min, listed as 2-phenyl-inodle
  Colouration of sheet (GARDNER sub-scale): 2 GARDNER degrees
[4]; 6 min
  Colouration of sheet (GARDNER sub-scale): 2.5 GARDNER degrees and 2 GARDNER degrees and 3 GARDNER degrees
[4]; 6 min, listed as 2-phenyl-inodle
  Colouration of sheet (GARDNER sub-scale): 3 GARDNER degrees
[4]; 9 min, listed as 2-phenyl-inodle
  Colouration of sheet (GARDNER sub-scale): 8 GARDNER degrees
[4]; 12 min
  Colouration of sheet (GARDNER sub-scale): 11 GARDNER degrees and 10 GARDNER degrees and 9 GARDNER degrees
[4]; 12 min, listed as 2-phenyl-inodle
  Colouration of sheet (GARDNER sub-scale): 11 GARDNER degrees
[4]; 15 min
  Colouration of sheet (GARDNER sub-scale): 13 GARDNER degrees and 12 GARDNER degrees and 14 GARDNER degrees
[4]; 15 min, listed as 2-phenyl-inodle
  Colouration of sheet (GARDNER sub-scale): 12 GARDNER degrees
[4]; 18 min
  Colouration of sheet (GARDNER sub-scale): burnt
[4]; at 15 min
  Burning of sheet: burnt along its edges; also recorded: badly burnt
[5]; 0 min
  Colouration of sheet (GARDNER sub-scale): 1 GARDNER degrees
[5]; 10 min
  Colouration of sheet (GARDNER sub-scale): 2 GARDNER degrees
[5]; 20 min
  Colouration of sheet (GARDNER sub-scale): > 2 GARDNER degrees
[5]; 30 min
  Colouration of sheet (GARDNER sub-scale): 3 GARDNER degrees
[6]; 0 min
  Colouration of sheet (GARDNER sub-scale): < 1 GARDNER degrees
[6]; 10 min
  Colouration of sheet (GARDNER sub-scale): 1 GARDNER degrees
[6]; 20 min
  Colouration of sheet (GARDNER sub-scale): 2 GARDNER degrees
[6]; 30 min
  Colouration of sheet (GARDNER sub-scale): 3 GARDNER degrees
[7]; 0 min
  Colouration of sheet (GARDNER sub-scale): 1 GARDNER degrees
[7]; 10 min
  Colouration of sheet (GARDNER sub-scale): 1.5 GARDNER degrees
[7]; 20 min
  Colouration of sheet (GARDNER sub-scale): 2 GARDNER degrees
[7]; 30 min
  Colouration of sheet (GARDNER sub-scale): < 3 GARDNER degrees
[7]; 40 min
  Colouration of sheet (GARDNER sub-scale): 3 GARDNER degrees
[7]; 50 min
  Colouration of sheet (GARDNER sub-scale): > 3 GARDNER degrees
[7]; 55 min
  Colouration of sheet (GARDNER sub-scale): 3.5 GARDNER degrees
[7]; 60 min
  Colouration of sheet (GARDNER sub-scale): > 4 GARDNER degrees
[8]
  Sticking of the stabilized material: comparable
[9]
  Percentage of sublimated substance: 26.9%
[10]
  Temperature from which it particularly sublimates (melting point): 185-190 °C
[10]; 2° C/minute
  Loss of water at 100° C: no loss of water at 100 °C
  Sublimation temperature: 140 °C
[11]; 80° C/hour, under air
  Decomposition residue at 210° C: a yellowish residue was, in fact, obtained at 210 °C which constitutes proof of decomposition

## CCCCCCCCCCCCOc1ccc(-c2cc3ccccc3[nH]2)cc1 [Stabilizer 8, 2-(4'-dodecyloxy-phenyl)-indole]
[1]
  LD50: > 5000 mg/kg
mice
  Toxic symptoms: none
[2]; 0 min
  Colouration of sheet (GARDNER Scale): 1 GARDNER degrees
[2]; 3 min
  Colouration of sheet (GARDNER Scale): 1 GARDNER degrees
[2]; 6 min
  Colouration of sheet (GARDNER Scale): 2 GARDNER degrees
[2]; 9 min
  Colouration of sheet (GARDNER Scale): 3 GARDNER degrees
[2]; 12 min
  Colouration of sheet (GARDNER Scale): 3 GARDNER degrees
[2]; 15 min
  Colouration of sheet (GARDNER Scale): 5 GARDNER degrees
[2]; 18 min
  Colouration of sheet (GARDNER Scale): 7 GARDNER degrees
[2]; 21 min
  Colouration of sheet (GARDNER Scale): 11 GARDNER degrees
  Static thermostability compared with 2-phenyl-indole: clearly superior to 2-phenyl-indole
[2]
  Thickness of sheet: 1.30 mm
  State of sheet: burnt
[5]
  Colouration given to the co-polymer: less yellow-coloured than that containing 2-phenyl-indole
  Static thermostability compared with 2-phenyl-indole: superior to 2-phenyl-indole
[5]; 0 min
  Colouration of sheet (GARDNER sub-scale): < 1 GARDNER degrees
[5]; 10 min
  Colouration of sheet (GARDNER sub-scale): < 2 GARDNER degrees
[5]; 20 min
  Colouration of sheet (GARDNER sub-scale): 2 GARDNER degrees
[5]; 30 min
  Colouration of sheet (GARDNER sub-scale): < 3 GARDNER degrees
[6]; 0 min
  Colouration of sheet (GARDNER sub-scale): < 1 GARDNER degrees
[6]; 10 min
  Colouration of sheet (GARDNER sub-scale): < 1 GARDNER degrees
[6]; 20 min
  Colouration of sheet (GARDNER sub-scale): < 2 GARDNER degrees
[6]; 30 min
  Colouration of sheet (GARDNER sub-scale): < 3 GARDNER degrees
[7]; 0 min
  Colouration of sheet (GARDNER sub-scale): 1 GARDNER degrees
[7]; 10 min
  Colouration of sheet (GARDNER sub-scale): 1.5 GARDNER degrees
[7]; 20 min
  Colouration of sheet (GARDNER sub-scale): 2 GARDNER degrees
[7]; 30 min
  Colouration of sheet (GARDNER sub-scale): 2.5 GARDNER degrees
[7]; 40 min
  Colouration of sheet (GARDNER sub-scale): < 3 GARDNER degrees
[7]; 50 min
  Colouration of sheet (GARDNER sub-scale): 3 GARDNER degrees
[7]; 55 min
  Colouration of sheet (GARDNER sub-scale): 3 GARDNER degrees
[7]; 60 min
  Colouration of sheet (GARDNER sub-scale): 3.5 GARDNER degrees
[7]; after 60 min
  Static thermostability compared with 2-phenyl-indole: superior as a stabilizer to 2-phenyl-indole
[12]
  Dynamic thermostability compared with 2-phenyl-indole: slight superiority over 2-phenyl-indole
[8]
  Sticking of the stabilized material: comparable
[9]
  Sublimation relative to 2-phenyl-indole: forty times less than that of 2-phenyl-indole
  Percentage of sublimated substance: 0.6%
[10]
  Melting temperature: 203 °C
[10]; 2° C/minute
  Start of decomposition: 300 °C
[11]; 80° C/hour, under air
  Start of weight loss: about 295 °C
[11]; thermogravimetric analysis and differential thermoanalysis
  Thermostability of the stabilizer compared with 2-phenyl-indole: greater thermostability than 2-phenyl-indole
